Marks after values point to notes of the source that are not given here.
How the values were obtained:
[1] = target: T1, human recombinant β1 receptors (Homo sapiens, UniProt P08588); assay: β1 radioligand binding assay
T1 construct: expressed in transfected cells; host or cells: CHO cells

[2] = target: T2, human recombinant β2 receptors (Homo sapiens, UniProt P07550); assay: β2 radioligand binding assay
[3] = target: T2, human recombinant β2 receptors; assay: Intrinsic activity assessment (β2), cAMP production in CHO cells; format: cell-based; conditions: relative to procaterol, read-out: intrinsic activity (% response relative to procaterol-induced cAMP increase)
adrenergic β1 receptors = adrenergic β1 receptors (Cavia porcellus, UniProt H0W3H1); assay: β1 adrenergic functional activity, positive chronotropic effect in isolated right atria; set-up: species or system Dunkin Hartley Guinea pigs; conditions: read-out: increase in heart rate, β1 functional assay
Sequence of adrenergic β1 receptors (H0W3H1 1-470): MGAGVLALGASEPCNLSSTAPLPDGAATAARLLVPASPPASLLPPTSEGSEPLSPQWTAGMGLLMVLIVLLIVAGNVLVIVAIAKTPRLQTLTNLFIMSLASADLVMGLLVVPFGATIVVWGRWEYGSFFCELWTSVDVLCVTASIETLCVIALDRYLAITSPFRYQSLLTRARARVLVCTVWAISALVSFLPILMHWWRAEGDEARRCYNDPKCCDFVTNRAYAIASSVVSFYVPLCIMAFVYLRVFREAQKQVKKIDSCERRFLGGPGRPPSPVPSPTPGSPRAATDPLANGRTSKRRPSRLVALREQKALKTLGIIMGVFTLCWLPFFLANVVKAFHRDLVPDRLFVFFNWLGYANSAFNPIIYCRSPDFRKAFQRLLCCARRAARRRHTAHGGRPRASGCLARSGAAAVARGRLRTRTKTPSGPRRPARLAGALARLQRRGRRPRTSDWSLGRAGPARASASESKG
Excerpt: β1 and β2 Adrenergic Activity (Functional)
The concentration that gives 50% maximal effect is the EC50.

adrenergic β2 receptors = target: T3, adrenergic β2 receptors (Cavia porcellus, UniProt Q8K4Z4); assay: β2 adrenergic functional activity, relaxation of spontaneous tone of isolated trachea; set-up: species or system Dunkin Hartley Guinea pigs
T3 construct: from tissue; host or cells: isolated trachea, Dunkin Hartley guinea pig
T3 sequence (Q8K4Z4 whole entry): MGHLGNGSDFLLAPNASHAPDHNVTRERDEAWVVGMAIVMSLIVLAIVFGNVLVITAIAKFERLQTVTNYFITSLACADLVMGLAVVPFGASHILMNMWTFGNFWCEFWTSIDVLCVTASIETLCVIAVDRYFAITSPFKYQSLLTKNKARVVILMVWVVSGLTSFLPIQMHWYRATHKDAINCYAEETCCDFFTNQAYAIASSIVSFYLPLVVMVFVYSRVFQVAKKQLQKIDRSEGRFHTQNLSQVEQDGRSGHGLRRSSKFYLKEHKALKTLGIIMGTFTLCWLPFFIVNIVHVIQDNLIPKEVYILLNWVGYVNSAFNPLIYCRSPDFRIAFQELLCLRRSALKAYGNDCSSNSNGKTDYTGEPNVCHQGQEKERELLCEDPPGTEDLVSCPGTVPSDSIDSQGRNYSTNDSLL

[4] = Stability in aqueous buffered solutions (HPLC assay); format: physicochemical
Protocol: Stability in Aqueous Buffered Solutions
Solution Preparations: For each test compound, the following solutions are prepared.
• Solution A is prepared from ˜30 mg of the test compound in 150 mL of 0.005 M citrate buffer, pH 5.0 (˜0.2 mg/mL). • Solution B is prepared as follows: approximately 30 mL aliquot of Solution A is transferred to a separated container and the pH of the solution is adjusted to pH 3.0 with 1 N HCl (˜0.2 mL). • Solution C is prepared as follows: approximately 30 mL aliquot of Solution A is transferred to a separated container and the pH of the solution is adjusted to pH ˜8.0 with 1 N NaOH (˜0.2 mL). • Note: Because the volume of 1 N HCl or 1 N NaOH used for adjusting pH was negligible, the concentration of test compound in Solutions A, B and C were the same.
Storage Scheme • As soon as the above solutions were prepared, aliquots of each solution were transferred into 11 vials, of which 9 vials are stored at −20° C., and one each is stored at 30° C. and 40° C., respectively. • At each interval listed below, two vials are removed from −20° C. storage, and stored at 30° C. and 40° C., respectively. • The corresponding weeks under the storage condition (30° C. or 40° C.) are shown in the table below.
On Week 12, the last vial stored at −20° C. is removed and warmed up to the room temperature, which is the Day 0 Solution.
Sample Analysis: On Week 12, all solutions are assayed by an HPLC method using the Day 0 Solution at pH 5 as a standard solution. The test compounds were assayed by HPLC with UV detection (refer to Table 1 for method conditions).

T2 sequence (P07550 whole entry): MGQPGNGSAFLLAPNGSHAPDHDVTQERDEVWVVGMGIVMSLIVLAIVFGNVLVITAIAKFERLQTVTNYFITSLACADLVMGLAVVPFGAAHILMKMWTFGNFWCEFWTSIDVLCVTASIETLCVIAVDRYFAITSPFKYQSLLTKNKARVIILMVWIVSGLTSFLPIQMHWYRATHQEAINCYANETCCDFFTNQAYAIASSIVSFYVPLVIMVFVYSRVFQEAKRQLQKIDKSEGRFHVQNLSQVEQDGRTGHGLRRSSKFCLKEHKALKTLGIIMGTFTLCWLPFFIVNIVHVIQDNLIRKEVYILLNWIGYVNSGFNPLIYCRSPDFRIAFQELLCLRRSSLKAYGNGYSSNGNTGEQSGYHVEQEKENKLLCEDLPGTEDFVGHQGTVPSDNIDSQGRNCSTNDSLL
T1 sequence (P08588 whole entry): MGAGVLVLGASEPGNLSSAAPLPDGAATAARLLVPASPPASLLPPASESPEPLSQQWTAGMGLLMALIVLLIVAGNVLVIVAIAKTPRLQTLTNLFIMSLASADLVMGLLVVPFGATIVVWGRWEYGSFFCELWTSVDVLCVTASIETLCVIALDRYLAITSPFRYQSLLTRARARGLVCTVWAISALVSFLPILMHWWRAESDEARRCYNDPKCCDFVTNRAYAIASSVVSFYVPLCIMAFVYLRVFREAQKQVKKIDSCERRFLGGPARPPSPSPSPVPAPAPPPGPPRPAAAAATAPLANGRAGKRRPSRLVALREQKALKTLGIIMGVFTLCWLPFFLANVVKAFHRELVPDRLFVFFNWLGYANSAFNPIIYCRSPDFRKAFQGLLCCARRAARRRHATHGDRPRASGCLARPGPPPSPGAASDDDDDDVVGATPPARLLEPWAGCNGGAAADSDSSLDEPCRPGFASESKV

Question: With `CC(=O)Nc1cc([C@H](O)CN[C@H](C)Cc2ccc(O)cc2)ccc1O` [Example 1, N-[2-hydroxy-5-[(1S)-1-hydroxy-2-[[(1R)-2-(4-hydroxyphenyl)-1-methylethyl]amino]ethyl]phenyl]acetamide] as the compound, how does the inhibition at 20 µM ([1]; at a concentration of 20 μM, read-out: inhibition of specific binding, β1 receptor) read?
Answer: The inhibition at 20 µM was 30%.

Question: And the Ki ([1]; displacement of [125I]-cyanopidolol, CHO cells, read-out: Ki for the β1 receptor)?
Answer: Its Ki is over 20 µM.

Question: What about the Ki ([2]; displacement of [3H]-CGP-12177, CHO cells, read-out: Ki for the β2 receptor) of the same compound?
Answer: Its Ki is 2.21 µM.

Question: What about the β1/β2 binding ratio ([2]; ratio of β1 to β2 binding Ki) of the same compound?
Answer: The β1/β2 binding ratio was over 9.

Question: And the Emax [3]?
Answer: Its Emax is 71%.

Question: What about the activation at 30 µM (adrenergic β1 receptors) of the same compound?
Answer: Its activation at 30 µM is 32%.

Question: What about the EC50 (adrenergic β2 receptors; isolated guinea pig trachea) of the same compound?
Answer: Its EC50 is 0.12 µM.

Question: And the β1/β2 functional ratio (adrenergic β2 receptors; ratio of β1 to β2 functional EC50)?
Answer: The β1/β2 functional ratio was over 250.

Question: What about the “% of Initial Concentration” value ([4]; pH 3.0, 30° C., 0 wk) of the same compound?
Answer: The value was 99.46%.

Question: What about the “% of Initial Concentration” value ([4]; pH 3.0, 30° C., 1 wk) of the same compound?
Answer: The value was 100.03%.

Question: What about the “% of Initial Concentration” value ([4]; pH 3.0, 30° C., 2 wk) of the same compound?
Answer: Its value is 99.84%.

Question: And the “% of Initial Concentration” value ([4]; pH 3.0, 30° C., 4 wk)?
Answer: The value was 101.41%.

Question: And the “% of Initial Concentration” value ([4]; pH 3.0, 30° C., 8 wk)?
Answer: The value was 100.33%.

Question: What about the “% of Initial Concentration” value ([4]; pH 3.0, 30° C., 12 wk) of the same compound?
Answer: Its value is 100.29%.

Question: What about the “% of Initial Concentration” value ([4]; pH 3.0, 40° C., 0 wk) of the same compound?
Answer: Its value is 99.46%.

Question: What about the “% of Initial Concentration” value ([4]; pH 3.0, 40° C., 1 wk) of the same compound?
Answer: Its value is 99.89%.

Question: What about the “% of Initial Concentration” value ([4]; pH 3.0, 40° C., 2 wk) of the same compound?
Answer: The value was 100.11%.

Question: And the “% of Initial Concentration” value ([4]; pH 3.0, 40° C., 4 wk)?
Answer: Its value is 99.54%.

Question: And the “% of Initial Concentration” value ([4]; pH 3.0, 40° C., 8 wk)?
Answer: Its value is 99.18%.

Question: And the “% of Initial Concentration” value ([4]; pH 3.0, 40° C., 12 wk)?
Answer: Its value is 97.17%.

Question: What about the “time found to be very stable in aqueous solution” value ([4]; pH 3 or 5, stored at 30° C.) of the same compound?
Answer: Its value is “at least 12 weeks”.

Question: And the “% of Initial Concentration” value ([4]; pH 5.0, 30° C., 0 wk)?
Answer: Its value is 100.25%.

Question: What about the “% of Initial Concentration” value ([4]; pH 5.0, 30° C., 1 wk) of the same compound?
Answer: Its value is 101.22%.

Question: And the “% of Initial Concentration” value ([4]; pH 5.0, 30° C., 2 wk)?
Answer: Its value is 101.07%.

Question: What about the “% of Initial Concentration” value ([4]; pH 5.0, 30° C., 4 wk, flagged out of trend) of the same compound?
Answer: The value was 112.52* %.

Question: What about the “% of Initial Concentration” value ([4]; pH 5.0, 30° C., 8 wk) of the same compound?
Answer: Its value is 107.12%.

Question: And the “% of Initial Concentration” value ([4]; pH 5.0, 30° C., 12 wk)?
Answer: Its value is 107.75%.

Question: And the “% of Initial Concentration” value ([4]; pH 5.0, 40° C., 0 wk)?
Answer: Its value is 100.25%.

Question: What about the “% of Initial Concentration” value ([4]; pH 5.0, 40° C., 1 wk) of the same compound?
Answer: Its value is 102.00%.

Question: What about the “% of Initial Concentration” value ([4]; pH 5.0, 40° C., 2 wk) of the same compound?
Answer: Its value is 102.73%.

Question: What about the “% of Initial Concentration” value ([4]; pH 5.0, 40° C., 4 wk) of the same compound?
Answer: The value was 102.94%.

Question: And the “% of Initial Concentration” value ([4]; pH 5.0, 40° C., 8 wk, flagged out of trend)?
Answer: Its value is 122.32* %.

Question: What about the “% of Initial Concentration” value ([4]; pH 5.0, 40° C., 12 wk, flagged out of trend) of the same compound?
Answer: Its value is 112.61* %.

Question: And the “% of Initial Concentration” value ([4]; ~pH 8, 30° C., 0 wk)?
Answer: The value was 100.38%.

Question: And the “% of Initial Concentration” value ([4]; ~pH 8, 30° C., 1 wk)?
Answer: Its value is 99.64%.

Question: And the “% of Initial Concentration” value ([4]; ~pH 8, 30° C., 2 wk)?
Answer: The value was 99.60%.

Question: What about the “% of Initial Concentration” value ([4]; ~pH 8, 30° C., 4 wk) of the same compound?
Answer: Its value is 96.62%.

Question: And the “% of Initial Concentration” value ([4]; ~pH 8, 30° C., 8 wk, flagged out of trend)?
Answer: The value was 26.79* %.

Question: What about the “% of Initial Concentration” value ([4]; ~pH 8, 30° C., 12 wk) of the same compound?
Answer: Its value is 89.93%.

Question: What about the “% of Initial Concentration” value ([4]; ~pH 8, 40° C., 0 wk) of the same compound?
Answer: The value was 100.38%.

Question: What about the “% of Initial Concentration” value ([4]; ~pH 8, 40° C., 1 wk) of the same compound?
Answer: Its value is 97.44%.

Question: And the “% of Initial Concentration” value ([4]; ~pH 8, 40° C., 2 wk)?
Answer: Its value is 93.75%.

Question: What about the “% of Initial Concentration” value ([4]; ~pH 8, 40° C., 4 wk) of the same compound?
Answer: The value was 86.72%.

Question: And the “% of Initial Concentration” value ([4]; ~pH 8, 40° C., 8 wk)?
Answer: The value was 72.25%.

Question: What about the “% of Initial Concentration” value ([4]; ~pH 8, 40° C., 12 wk) of the same compound?
Answer: Its value is 61.36%.

Question: And the melting point?
Answer: The melting point was 97 to 100 °C.

— patent US9499476B2, “Acetamide stereoisomer” (SUNOVION PHARMACEUTICALS INC., priority 2007, dated 2016)
